Measured values from patent publication US20170304388A1, “NEW INDICATION OF CARDIOVASCULAR DRUGS FOR PREPARATION OF CANCER INHIBITION PHARMACEUTICAL COMPOSITION” (LAUNX BIOMEDICAL CO., LTD., priority 2014, published 2017).
Like-named read-outs stand apart in the source and are kept apart here.

Columns and labels:
Format in all cases: cell-based
[1] = test system: HCT116 (Colorectal Carcinoma); assay: Cell viability analysis (WST-1), HCT116; settings: Homo sapiens, HCT-116, 72 h
[2] = test system: HepG2 (Hepatocellular Carcinoma); assay: Cell viability analysis (WST-1), HepG2; settings: Homo sapiens, HepG2, 72 h
[3] = test system: HeLa (Cervix Adenocarcinoma); assay: Cell viability analysis (WST-1), HeLa; settings: Homo sapiens, HeLa, 72 h
[4] = test system: AGS (Gastric Adenocarcinoma); assay: Cell viability analysis (WST-1), AGS; settings: 72 h
[5] = test system: H1650 (Lung Adenocarcinoma); assay: Cell viability analysis (WST-1), H1650; settings: Homo sapiens, NCI-H1650, 72 h
[6] = test system: MKN-45 (Gastric Adenocarcinoma); assay: Cell viability analysis (WST-1), MKN-45; settings: Homo sapiens, MKN-45, 72 h
[7] = test system: A549 (Lung Adenocarcinoma); assay: Cell viability analysis (WST-1), A549; settings: Homo sapiens, A549, 72 h
[8] = test system: MCF7 (Mammary Gland, Adenocarcinoma); assay: Cell viability analysis (WST-1), MCF7; settings: Homo sapiens, MCF7, 72 h
[9] = test system: PC3 (Prostate Adenocarcinoma); assay: Cell viability analysis (WST-1), PC3; settings: 72 h
[10] = test system: LoVo (Colorectal Adenocarcinoma); assay: Cell viability analysis (WST-1), LoVo; settings: Homo sapiens, LoVo, 72 h
T24 = assay: Cell viability analysis (WST-1), T24; settings: Homo sapiens, T-24, 72 h, Table 4, repeated experiments, drug 10 μM, read-out: survival rate (viability) of cancer cells, T24
Outline: (§1)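 Absorbance at OD450 nm after WST-1 incubation gave the survival rate. Cells (3000/well) were exposed to drug at 10 μM for 72 hours, then given WST-1 diluted 9:1 in medium for 30 to 90 minutes at 37° C.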

Hep3B = assay: Cell viability analysis (WST-1), Hep3B; settings: Homo sapiens, Hep3B, 72 h, Table 4, repeated experiments, drug 10 μM, read-out: survival rate (viability) of cancer cells, Hep3B
Outline: as §1

C-33A = assay: Cell viability analysis (WST-1), C-33A; settings: Homo sapiens, C-33-A, 72 h, Table 4, repeated experiments, drug 10 μM, read-out: survival rate (viability) of cancer cells, C-33A
Outline: as §1

NIH-OVCAR-3 = assay: Cell viability analysis (WST-1), NIH-OVCAR-3; settings: Homo sapiens, OVCAR-3, 72 h, Table 4, repeated experiments, drug 10 μM, read-out: survival rate (viability) of cancer cells, NIH-OVCAR-3
Outline: as §1

AsPC-1 = assay: Cell viability analysis (WST-1), AsPC-1; settings: Homo sapiens, ASPC1, 72 h, Table 4, repeated experiments, drug 10 μM, read-out: survival rate (viability) of cancer cells, AsPC-1
Outline: as §1

BxPC-3 = assay: Cell viability analysis (WST-1), BxPC-3; settings: Homo sapiens, BXPC-3, 72 h, Table 4, repeated experiments, drug 10 μM, read-out: survival rate (viability) of cancer cells, BxPC-3
Outline: as §1

SAS = assay: Cell viability analysis (WST-1), SAS; settings: 72 h, Table 4, repeated experiments, drug 10 μM, read-out: survival rate (viability) of cancer cells, SAS
Outline: as §1

BCC = assay: Cell viability analysis (WST-1), BCC; settings: BCC, 72 h, Table 4, repeated experiments, drug 10 μM, read-out: survival rate (viability) of cancer cells, BCC
cancer cell lines = assay: Growth inhibitory effects on the panel of cancer cell lines; settings: count of cancer cell lines inhibited; drug 10 μM, 72 hours
Excerpt: Subculture the different types of cancer cells.
For cell viability analysis, the cardiovascular drugs include peripheral vasodilator reaming enhancer, angiotensin converting agent inhibitor, hypotension and shock therapeutic agent, diuretic, antiarrhythmic agent, antiarralciton drug, antihypertensive agent, anticoagulant thrombolytic agent, cardiac tonic, intravenous (hemorrhoids) therapeutic agent, are used to test the inhibition effect of cancer cell.

CCC(C)(C)C(=O)O[C@H]1C[C@@H](C)C=C2C=C[C@H](C)[C@H](CC[C@@H]3C[C@@H](O)CC(=O)O3)[C@H]21 [Simvastatin (Zocor), Simvastatin]
viability at 10 µM ([1]; Table 3, drug 10 μM, WST-1, OD450 nm, read-out: survival rate (viability) of cancer cells, HCT116 (WT)): 124% | viability at 10 µM ([1]; Table 4, repeated experiments, drug 10 μM, WST-1, read-out: survival rate (viability) of cancer cells, HCT116): 83.2% | viability at 10 µM ([2]; Table 3, drug 10 μM, WST-1, OD450 nm, read-out: survival rate (viability) of cancer cells, HepG2): 113% | viability at 10 µM ([2]; Table 4, repeated experiments, drug 10 μM, WST-1, read-out: survival rate (viability) of cancer cells, HepG2): 124% | viability at 10 µM ([3]; Table 3, drug 10 μM, WST-1, OD450 nm, read-out: survival rate (viability) of cancer cells, HeLa): 104% | viability at 10 µM ([3]; Table 4, repeated experiments, drug 10 μM, WST-1, read-out: survival rate (viability) of cancer cells, HeLa): 100% | viability at 10 µM ([4]; Table 3, drug 10 μM, WST-1, OD450 nm, read-out: survival rate (viability) of cancer cells, AGS): 85.6% | viability at 10 µM ([4]; Table 4, repeated experiments, drug 10 μM, WST-1, read-out: survival rate (viability) of cancer cells, AGS): 81% | viability at 10 µM ([5]; Table 3, drug 10 μM, WST-1, OD450 nm, read-out: survival rate (viability) of cancer cells, H1650): 115% | viability at 10 µM ([5]; Table 4, repeated experiments, drug 10 μM, WST-1, read-out: survival rate (viability) of cancer cells, H1650): 79.8% | viability at 10 µM ([6]; Table 3, drug 10 μM, WST-1, OD450 nm, read-out: survival rate (viability) of cancer cells, MKN-45): 79.4% | viability at 10 µM ([6]; Table 4, repeated experiments, drug 10 μM, WST-1, read-out: survival rate (viability) of cancer cells, MKN-45): 92.6% | viability at 10 µM ([7]; Table 3, drug 10 μM, WST-1, OD450 nm, read-out: survival rate (viability) of cancer cells, A549): 126% | viability at 10 µM ([7]; Table 4, repeated experiments, drug 10 μM, WST-1, read-out: survival rate (viability) of cancer cells, A549): 110% | viability at 10 µM ([8]; Table 3, drug 10 μM, WST-1, OD450 nm, read-out: survival rate (viability) of cancer cells, MCF7): 81.5% | viability at 10 µM ([8]; Table 4, repeated experiments, drug 10 μM, WST-1, read-out: survival rate (viability) of cancer cells, MCF-7): 88.8% | viability at 10 µM ([9]; Table 3, drug 10 μM, WST-1, OD450 nm, read-out: survival rate (viability) of cancer cells, PC3): 91.8% | viability at 10 µM ([9]; Table 4, repeated experiments, drug 10 μM, WST-1, read-out: survival rate (viability) of cancer cells, PC-3): 92.8% | viability at 10 µM ([10]; Table 3, drug 10 μM, WST-1, OD450 nm, read-out: survival rate (viability) of cancer cells, LoVo): 99.9% | viability at 10 µM ([10]; Table 4, repeated experiments, drug 10 μM, WST-1, read-out: survival rate (viability) of cancer cells, LoVo): 89.3% | viability at 10 µM (T24): 89.6% | viability at 10 µM (Hep3B): 114% | viability at 10 µM (C-33A): 112% | viability at 10 µM (NIH-OVCAR-3): 98.4% | viability at 10 µM (AsPC-1): 78.2% | viability at 10 µM (BxPC-3): 81.8% | viability at 10 µM (SAS): 83.9% | viability at 10 µM (BCC): 57.4% | Numbers of inhibitory effect on cancer cell line (cancer cell lines): 0
